Laboratory results as given in PMC7615677 (Science translational medicine, 2023).

Experiments:
L. donovani = assay: Leishmania intramacrophage in vitro assay; assay type: cell-based
Description: A drug incubation period of 96 h was applied, and cells were stained with Giemsa for microscopic evaluation of cellular amastigote burdens. Percentage reduction compared to the burden in the infected non-treated control wells was used as a measure for drug activity.
Alternatively, differentiated macrophage host cells derived from THP-1 (human leukemia monocytes) were infected at a multiplicity of infection of 1:2.5 (ratio of host cells to parasites) with L. donovani MHOM/IN/80/DD8 culture-maintained promastigotes. L. donovani MHOM/IN/80/DD8 (ATCC 50212) promastigote parasites and THP-1 (ATCC TIB202) cells were maintained as previously described ([20]). A drug incubation period of 96 h was applied, plates fixed with 4% paraformaldehyde and stained with SYBR® green and CellMask Deep Red™ (ThermoFisher Scientific). Images were acquired on an Opera high-content imaging system (PerkinElmer). Healthy host (THP-1) cells and intracellular amastigotes were identified using CellMask Deep Red cytoplasmic and SYBR green nuclear area and intensities, with intracellular parasites identified based on spot detection algorithms (size and intensity measurements used to define parasite nucleus) to determine the number of parasites present within THP-1 host cells. An infected cell was defined as a host cell containing >3 parasites within the cytoplasm boundary. Compound activity was determined based on the number of infected cells normalized to the positive (10μM DNDI-1044) and negative (0.4% DMSO) controls. Non-linear sigmoidal dose-response curves with no constraints were plotted, and IC50 was calculated. The IC50s were calculated from two independent experiments.

In vivo pharmacokinetics = assay: In vivo pharmacokinetics; set-up: species or system female BALB/c mice; conditions: female, BALB/c, plasma
Description: Single dose intravenous (IV) pharmacokinetic (PK) studies in male Sprague Dawley rats and IV and oral PK studies in female BALB/c mice were conducted at Monash University. […] Blood was sampled via a cannula implanted in the carotid artery (also on the day prior to dosing) at pre-determined time points up to 24 h post-dose. Samples were transferred to vials containing heparin as an anticoagulant, gently mixed and centrifuged, and plasma separated for subsequent quantitative analysis using LC-MS. […] A dose of 25 mg/kg prepared in an aqueous suspension vehicle containing 0.5% hydroxypropyl methylcellulose, 0.5% benzyl alcohol and 0.4% polysorbate 80 (0.2 mL per mouse) was also dosed via oral gavage. Mouse blood was sampled via submandibular bleed up to 24 h post-dose (n=2 mice per time point, n=3 samples per mouse) into vials containing heparin and plasma was separated for quantitative analysis as described above.
Additional PK studies were also conducted by WuXi AppTec Co, Ltd (Shanghai, China) according to protocols reviewed and approved by DNDi. […] IV and oral formulations for rats, mice and hamsters were the same as described above. For dogs, the IV dose was administered in saline containing 2% DMSO and 3% Solutol HS-15 and the oral formulation was as described above. Blood was sampled up to 48 h post-dose into vials containing potassium EDTA as an anticoagulant, proteins were precipitated with acetonitrile and plasma was separated and assayed by LC-MS.
Single dose pharmacokinetic parameters (clearance, volume of distribution and half-life) were initially estimated using non-compartmental methods and oral bioavailability was calculated using the ratio of the dose corrected AUC after oral dosing relative to that after IV administration. […] Where a full concentration versus time profile was obtained from a single animal, parameters were estimated for each animal and mean and standard deviations calculated. In the case of mice where sparse sampling was used with multiple animals per time point, the data analysis was conducted using the mean profile.

[1] = In vitro cytotoxicity assay; assay type: cell-based; conditions: human, HepG2 human hepatocellular carcinoma cells
[2] = In vitro cytotoxicity assay; assay type: cell-based; conditions: human, U2OS human osteosarcoma cells
[3] = test system: Salmonella typhimurium strains TA1535, TA1537, TA98 and TA100, and Escherichia coli WP2 uvrA (pKM101); assay: Ames test; assay type: cell-based; conditions: absence or presence of rat liver S9
Description: Salmonella typhimurium strains TA1535, TA1537, TA98 and TA100, and Escherichia coli WP2 uvrA (pKM101) were employed. Positive controls were respectively sodium azide (2 μg/plate), 9-amino acridine (50 μg/plate), 2-nitrofluorene (1 μg/plate), sodium azide (2 μg/plate) and 4-nitroquinoline-1-oxide (2 μg/plate). The negative control was DMSO.

5-HT transporter = biological target: T1, 5-HT transporter (Homo sapiens, UniProt P31645); assay: In vitro pharmacology panel (Eurofins); assay type: binding; conditions: read-out: activity (% of DMSO control)
T1 construct: purchased Eurofins (Cerep/DiscoverX SafetyScreen44 in vitro pharmacology panel)
T1 sequence (P31645 whole entry): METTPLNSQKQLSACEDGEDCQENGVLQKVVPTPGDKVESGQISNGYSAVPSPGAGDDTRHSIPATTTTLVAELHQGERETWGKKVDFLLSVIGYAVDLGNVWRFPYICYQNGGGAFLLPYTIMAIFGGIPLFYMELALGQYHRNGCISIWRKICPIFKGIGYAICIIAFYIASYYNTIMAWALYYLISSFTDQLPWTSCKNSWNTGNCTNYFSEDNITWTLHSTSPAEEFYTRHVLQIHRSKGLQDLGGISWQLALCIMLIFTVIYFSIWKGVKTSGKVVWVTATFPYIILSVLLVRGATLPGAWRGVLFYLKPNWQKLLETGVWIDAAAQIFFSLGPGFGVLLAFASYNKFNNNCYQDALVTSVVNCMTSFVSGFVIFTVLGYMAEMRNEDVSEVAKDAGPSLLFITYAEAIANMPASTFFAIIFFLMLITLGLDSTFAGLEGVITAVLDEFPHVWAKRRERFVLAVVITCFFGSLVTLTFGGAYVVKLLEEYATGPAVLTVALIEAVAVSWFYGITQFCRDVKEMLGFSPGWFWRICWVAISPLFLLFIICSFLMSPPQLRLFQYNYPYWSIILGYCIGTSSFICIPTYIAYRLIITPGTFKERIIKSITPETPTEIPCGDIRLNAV
Source text: (§1) Listed values represent the percent change relative to the DMSO control activity. When an IC50 had to be determined, eight different concentrations were included. All values are the mean of assay readout duplicates.

5-HT1B = biological target: T2, 5-HT1B (Rattus norvegicus, UniProt P28564); assay: In vitro pharmacology panel (Eurofins); assay type: binding; conditions: read-out: activity (% of DMSO control)
T2 construct: purchased Eurofins (Cerep/DiscoverX SafetyScreen44 in vitro pharmacology panel)
T2 sequence (P28564 whole entry): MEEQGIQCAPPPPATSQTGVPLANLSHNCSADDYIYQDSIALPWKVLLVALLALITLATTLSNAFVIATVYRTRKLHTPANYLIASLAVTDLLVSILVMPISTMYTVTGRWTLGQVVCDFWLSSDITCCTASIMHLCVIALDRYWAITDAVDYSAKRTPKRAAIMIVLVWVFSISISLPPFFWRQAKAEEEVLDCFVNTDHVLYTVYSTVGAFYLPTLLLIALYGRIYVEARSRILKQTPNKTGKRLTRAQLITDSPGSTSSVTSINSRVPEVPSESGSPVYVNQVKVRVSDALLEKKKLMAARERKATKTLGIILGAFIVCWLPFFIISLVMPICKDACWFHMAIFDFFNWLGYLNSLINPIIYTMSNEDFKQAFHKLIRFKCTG
Source text: as §1

5-HT3 = biological target: T3, 5-HT3 (Homo sapiens, UniProt P46098); assay: In vitro pharmacology panel (Eurofins); assay type: binding; conditions: read-out: activity (% of DMSO control)
T3 construct: purchased Eurofins (Cerep/DiscoverX SafetyScreen44 in vitro pharmacology panel)
T3 sequence (P46098 24-478): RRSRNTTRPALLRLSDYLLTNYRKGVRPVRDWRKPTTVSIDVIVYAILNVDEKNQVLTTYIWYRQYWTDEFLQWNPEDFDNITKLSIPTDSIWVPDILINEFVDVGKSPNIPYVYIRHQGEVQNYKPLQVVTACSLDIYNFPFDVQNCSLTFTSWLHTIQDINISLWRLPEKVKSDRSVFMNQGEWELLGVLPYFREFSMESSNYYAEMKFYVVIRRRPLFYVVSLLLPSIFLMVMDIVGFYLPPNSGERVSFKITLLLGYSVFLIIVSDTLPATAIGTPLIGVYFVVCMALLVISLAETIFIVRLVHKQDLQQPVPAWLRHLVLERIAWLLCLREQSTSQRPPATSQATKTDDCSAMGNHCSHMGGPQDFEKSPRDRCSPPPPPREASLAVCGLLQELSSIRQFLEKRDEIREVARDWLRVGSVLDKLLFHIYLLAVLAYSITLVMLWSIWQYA
Source text: as §1

A2A = biological target: T4, A2A (Homo sapiens, UniProt P29274); assay: In vitro pharmacology panel (Eurofins); assay type: binding; conditions: read-out: activity (% of DMSO control)
T4 construct: purchased Eurofins (Cerep/DiscoverX SafetyScreen44 in vitro pharmacology panel)
T4 sequence (P29274 whole entry): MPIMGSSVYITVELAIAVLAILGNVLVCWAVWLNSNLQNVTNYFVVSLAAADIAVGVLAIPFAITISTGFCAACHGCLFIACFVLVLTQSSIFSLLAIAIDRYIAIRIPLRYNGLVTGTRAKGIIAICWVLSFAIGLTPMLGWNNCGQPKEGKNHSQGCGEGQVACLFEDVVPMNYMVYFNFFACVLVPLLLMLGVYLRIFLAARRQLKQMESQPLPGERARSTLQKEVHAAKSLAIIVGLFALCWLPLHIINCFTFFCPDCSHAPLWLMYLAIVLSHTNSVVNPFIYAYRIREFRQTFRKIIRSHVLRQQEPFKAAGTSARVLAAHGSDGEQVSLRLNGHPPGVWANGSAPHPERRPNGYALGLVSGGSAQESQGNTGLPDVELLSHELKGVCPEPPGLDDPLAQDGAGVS
Source text: as §1

CB1 = biological target: T5, CB1 (Homo sapiens, UniProt P21554); assay: In vitro pharmacology panel (Eurofins); assay type: binding; conditions: read-out: activity (% of DMSO control)
T5 construct: purchased Eurofins (Cerep/DiscoverX SafetyScreen44 in vitro pharmacology panel)
T5 sequence (P21554 whole entry): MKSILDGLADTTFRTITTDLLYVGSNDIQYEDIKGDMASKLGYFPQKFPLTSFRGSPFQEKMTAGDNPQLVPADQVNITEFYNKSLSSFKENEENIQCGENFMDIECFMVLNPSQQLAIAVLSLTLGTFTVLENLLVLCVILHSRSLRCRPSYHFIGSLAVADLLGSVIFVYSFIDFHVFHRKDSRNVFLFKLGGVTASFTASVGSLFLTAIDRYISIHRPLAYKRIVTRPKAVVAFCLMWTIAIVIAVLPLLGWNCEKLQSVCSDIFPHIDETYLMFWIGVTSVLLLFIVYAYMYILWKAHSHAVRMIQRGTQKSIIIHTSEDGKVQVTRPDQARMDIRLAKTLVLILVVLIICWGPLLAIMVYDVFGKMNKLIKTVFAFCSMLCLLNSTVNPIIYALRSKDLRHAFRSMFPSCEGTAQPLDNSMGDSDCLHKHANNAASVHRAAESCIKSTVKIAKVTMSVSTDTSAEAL
Source text: as §1

CB2 = biological target: T6, CB2 (Homo sapiens, UniProt P34972); assay: In vitro pharmacology panel (Eurofins); assay type: binding; conditions: read-out: activity (% of DMSO control)
T6 construct: purchased Eurofins (Cerep/DiscoverX SafetyScreen44 in vitro pharmacology panel)
T6 sequence (P34972 whole entry): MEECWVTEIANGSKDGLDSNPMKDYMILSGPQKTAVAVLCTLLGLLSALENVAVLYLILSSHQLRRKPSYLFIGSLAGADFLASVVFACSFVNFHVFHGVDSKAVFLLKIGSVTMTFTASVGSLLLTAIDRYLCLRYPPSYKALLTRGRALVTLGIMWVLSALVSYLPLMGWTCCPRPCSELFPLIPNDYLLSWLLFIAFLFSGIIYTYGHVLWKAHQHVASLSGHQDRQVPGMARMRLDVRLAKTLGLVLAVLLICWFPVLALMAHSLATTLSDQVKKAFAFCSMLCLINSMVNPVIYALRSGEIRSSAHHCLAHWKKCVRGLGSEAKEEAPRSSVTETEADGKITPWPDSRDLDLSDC
Source text: as §1

D1 = biological target: T7, D1 (Homo sapiens, UniProt P21728); assay: In vitro pharmacology panel (Eurofins); assay type: binding; conditions: read-out: activity (% of DMSO control)
T7 construct: purchased Eurofins (Cerep/DiscoverX SafetyScreen44 in vitro pharmacology panel)
T7 sequence (P21728 whole entry): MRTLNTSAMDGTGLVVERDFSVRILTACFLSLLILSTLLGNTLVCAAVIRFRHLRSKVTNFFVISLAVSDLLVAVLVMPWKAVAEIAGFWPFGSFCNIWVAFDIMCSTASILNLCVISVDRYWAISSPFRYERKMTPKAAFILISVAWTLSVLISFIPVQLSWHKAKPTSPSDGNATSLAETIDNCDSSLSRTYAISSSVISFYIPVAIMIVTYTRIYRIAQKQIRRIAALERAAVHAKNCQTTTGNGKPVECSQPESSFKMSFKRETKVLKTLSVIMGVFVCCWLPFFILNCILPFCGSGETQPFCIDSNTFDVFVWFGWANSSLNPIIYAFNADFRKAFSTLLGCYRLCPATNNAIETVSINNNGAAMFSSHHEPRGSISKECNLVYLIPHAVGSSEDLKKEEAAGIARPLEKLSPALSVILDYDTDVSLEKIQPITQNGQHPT
Source text: as §1

H1 = biological target: T8, H1 (Homo sapiens, UniProt P35367); assay: In vitro pharmacology panel (Eurofins); assay type: binding; conditions: read-out: activity (% of DMSO control)
T8 construct: purchased Eurofins (Cerep/DiscoverX SafetyScreen44 in vitro pharmacology panel)
T8 sequence (P35367 whole entry): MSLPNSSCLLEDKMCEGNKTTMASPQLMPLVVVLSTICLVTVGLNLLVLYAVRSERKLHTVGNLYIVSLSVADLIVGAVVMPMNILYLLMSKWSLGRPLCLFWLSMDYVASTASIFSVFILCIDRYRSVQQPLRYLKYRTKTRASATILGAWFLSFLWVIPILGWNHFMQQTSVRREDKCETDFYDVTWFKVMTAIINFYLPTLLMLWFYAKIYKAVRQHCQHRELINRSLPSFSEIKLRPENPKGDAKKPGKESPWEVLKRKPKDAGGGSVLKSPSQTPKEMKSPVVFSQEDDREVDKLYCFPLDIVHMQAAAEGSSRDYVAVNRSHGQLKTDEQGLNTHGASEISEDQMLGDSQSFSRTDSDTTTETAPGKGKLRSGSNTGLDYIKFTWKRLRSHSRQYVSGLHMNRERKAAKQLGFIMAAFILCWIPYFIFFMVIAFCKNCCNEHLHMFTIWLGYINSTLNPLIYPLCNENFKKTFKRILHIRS
Source text: as §1

MAO-A = biological target: T9, MAO-A (Rattus norvegicus, UniProt P21396); assay: In vitro pharmacology panel (Eurofins); assay type: binding; conditions: read-out: activity (% of DMSO control)
T9 construct: purchased Eurofins (Cerep/DiscoverX SafetyScreen44 in vitro pharmacology panel)
T9 sequence (P21396 whole entry): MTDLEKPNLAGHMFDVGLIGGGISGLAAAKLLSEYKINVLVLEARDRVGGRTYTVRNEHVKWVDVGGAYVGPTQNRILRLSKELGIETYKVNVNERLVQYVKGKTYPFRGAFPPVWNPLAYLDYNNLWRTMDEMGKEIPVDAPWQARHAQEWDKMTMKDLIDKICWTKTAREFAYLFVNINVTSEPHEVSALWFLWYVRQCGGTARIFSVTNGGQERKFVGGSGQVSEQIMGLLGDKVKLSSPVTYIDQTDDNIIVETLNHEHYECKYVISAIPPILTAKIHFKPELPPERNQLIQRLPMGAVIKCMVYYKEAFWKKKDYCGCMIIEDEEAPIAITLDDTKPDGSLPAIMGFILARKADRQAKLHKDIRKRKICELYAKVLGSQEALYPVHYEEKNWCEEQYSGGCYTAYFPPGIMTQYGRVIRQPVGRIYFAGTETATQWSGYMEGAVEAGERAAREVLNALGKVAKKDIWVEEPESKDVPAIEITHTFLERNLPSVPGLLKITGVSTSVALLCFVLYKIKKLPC
Source text: as §1

κ (KOP) = biological target: T10, κ (KOP) (Rattus norvegicus, UniProt P34975); assay: In vitro pharmacology panel (Eurofins); assay type: binding; conditions: read-out: activity (% of DMSO control)
T10 construct: purchased Eurofins (Cerep/DiscoverX SafetyScreen44 in vitro pharmacology panel)
T10 sequence (P34975 whole entry): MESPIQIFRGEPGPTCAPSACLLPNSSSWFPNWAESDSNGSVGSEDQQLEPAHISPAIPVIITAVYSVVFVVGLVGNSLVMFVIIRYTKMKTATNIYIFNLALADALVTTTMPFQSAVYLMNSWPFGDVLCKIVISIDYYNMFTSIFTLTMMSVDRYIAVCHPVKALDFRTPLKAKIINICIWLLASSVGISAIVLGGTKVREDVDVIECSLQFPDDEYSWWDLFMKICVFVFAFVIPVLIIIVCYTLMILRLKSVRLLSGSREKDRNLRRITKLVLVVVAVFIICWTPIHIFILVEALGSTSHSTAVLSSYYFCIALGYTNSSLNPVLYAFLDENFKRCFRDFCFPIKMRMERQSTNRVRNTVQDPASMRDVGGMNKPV
Source text: as §1

BZD (central) = assay: In vitro pharmacology panel (Eurofins); assay type: binding, rat; conditions: 10 µM
Source text: as §1

Na+ channel (site 2) = assay: In vitro pharmacology panel (Eurofins); assay type: binding, rat; conditions: 10 µM
Source text: as §1

THP-1 = assay: MitoXpress oxygen consumption assay; assay type: cell-based
[4] = L. donovani MHOM/ NP/2003/ BPK282/0-cl4
[5] = L. donovani MHOM/ET/2007/LLM-1600
[6] = L. donovani MHOM/NP/03/BPK275/0-cl18

Cc1[nH]c2nc(N)nc(C)c2c1-c1ccc(C#N)c2c1OCO2 [DNDI-6174] gave an EC50 (L. donovani; [4]) of 50 nM, an EC90 (L. donovani; [4]) of 140 nM and an EC50 (L. donovani; L. donovani MHOM/ET/67/HU3) of 90 nM. For the same compound, the EC90 (L. donovani; L. donovani MHOM/ET/67/HU3) was 2000 nM, the EC50 (L. donovani; [5]) was 80 nM and the EC90 (L. donovani; [5]) was 280 nM. The EC50 (L. donovani; L. donovani MHOM/IN/80/DD8) was 170 nM, the EC90 (L. donovani; L. donovani MHOM/IN/80/DD8) was 490 nM and the EC50 (L. donovani; [6]) was 40 nM. For the same compound, the EC90 (L. donovani; [6]) was 120 nM, the clearance (In vivo pharmacokinetics; mouse, iv, 2 mg/kg, intravenous 2.0 mg/kg, read-out: Plasma CL) was 7.46 mL/min/kg and the half-life (In vivo pharmacokinetics; Mouse, intravenous 2.0 mg/kg, read-out: Apparent t1/2 (converted)) was 2 h. It also gave a Cmax (In vivo pharmacokinetics; Mouse, oral 25 mg/kg) of 10400 ng/mL, a Tmax (In vivo pharmacokinetics; Mouse, oral 25 mg/kg) of 1 h and a bioavailability (In vivo pharmacokinetics; Mouse, oral 25 mg/kg) of over 100%. The CC50 [1] was over 64000 nM, the CC50 [2] was over 80000 nM and the “mutagenic potential (AMES), in words” value [3] was “did not show intrinsic mutagenic potential”. It also gave a remaining activity at 10 µM (5-HT transporter) of 69.9%, a remaining activity at 10 µM (5-HT1B) of 91.4% and a remaining activity at 10 µM (5-HT3) of 105%. For the same compound, the remaining activity at 10 µM (A2A) was 83.8%, the remaining activity at 10 µM (CB1) was 104% and the remaining activity at 10 µM (CB2) was 96.1%. For the same compound, the remaining activity at 10 µM (D1) was 63.1%, the remaining activity at 10 µM (H1) was 91.8% and the remaining activity at 10 µM (MAO-A) was 94.3%. For the same compound, the remaining activity at 10 µM (κ (KOP)) was 90.6%, the “activity (% of DMSO control)” value (BZD (central)) was 90.2% and the “activity (% of DMSO control)” value (Na+ channel (site 2)) was 73.9%. For the same compound, the XC50 (THP-1) was over 50000 nM and the pXC50 (THP-1) was under 4.3.
